According to patent US20250034147A1, “MDM2 DEGRADERS AND USES THEREOF” (Kymera Therapeutics, Inc., priority 2021, published 2025):

Experiments:
RS411 cells = test: Cell Viability CTG Assay; type: cell-based; conditions: Homo sapiens, RS4-11, CellTiter Glo (CTG) cell viability, read-out: Average external-IC50
Method in brief: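 RS411 cells (1000/well) exposed 1 day at 37 °C to compound, 11-point 3-fold dilution from 10 μM top, 0.2% DMSO final. Viability read by CellTiter-Glo luminescence; IC50 reported as letter bins.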

HiBiT-tagged MDM2 = molecular target: T1, HiBiT-tagged MDM2 (Homo sapiens, UniProt Q00987); test: MDM2 HiBit HEK293T degradation; type: cell-based; conditions: HEK293T cells stably expressing C-terminally HiBiT-tagged MDM2; 4 h; read-out: MDM2 HiBit HEK293T degradation 4 h: Average external-Abs DC50
T1 construct: expressed in transfected cells
T1 sequence (Q00987 whole entry): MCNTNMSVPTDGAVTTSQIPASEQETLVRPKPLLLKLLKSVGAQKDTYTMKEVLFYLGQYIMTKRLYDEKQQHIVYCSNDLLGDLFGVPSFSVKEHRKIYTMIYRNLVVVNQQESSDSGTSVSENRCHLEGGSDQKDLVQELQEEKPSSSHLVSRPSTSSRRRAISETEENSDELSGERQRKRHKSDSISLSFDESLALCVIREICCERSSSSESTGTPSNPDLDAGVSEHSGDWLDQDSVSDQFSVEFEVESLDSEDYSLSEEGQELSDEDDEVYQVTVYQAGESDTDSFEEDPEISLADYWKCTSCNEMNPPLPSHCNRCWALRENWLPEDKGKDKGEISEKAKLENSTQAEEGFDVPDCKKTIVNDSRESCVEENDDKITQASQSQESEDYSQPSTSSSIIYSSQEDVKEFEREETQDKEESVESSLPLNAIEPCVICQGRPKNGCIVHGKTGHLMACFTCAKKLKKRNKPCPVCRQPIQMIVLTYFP
Method in brief: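 Degradation was measured in HEK293T cells stably expressing C-terminally HiBiT-tagged MDM2, a pool selected with 1 microgram/ml puromycin. A MDM2 tool degrader and HaloPROTAC3 served as positive controls. Potency is reported as DC50 in letter bins.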

Structure (SMILES) | IC50 (RS411 cells) | DC50 (HiBiT-tagged MDM2)
Cn1c(=O)n(C2CCC(=O)NC2=O)c2ccc(C3CCN(C[C@H]4CC[C@H](NC(=O)[C@@H]5NC6(CCCCC6)[C@@]6(C(=O)Nc7cc(Cl)ccc76)[C@H]5c5cccc(Cl)c5F)CC4)C[C@H]3F)cc21 (stereo partly shown) [I-83] | > 500 nM | 10 to 100 nM
Cn1c(=O)n(C2CCC(=O)NC2=O)c2ccc([C@@H]3CCN(C[C@H]4CC[C@H](NC(=O)[C@@H]5NC6(CCCCC6)[C@@]6(C(=O)Nc7cc(Cl)ccc76)[C@H]5c5cccc(Cl)c5F)CC4)C[C@@H]3F)cc21 (stereo partly shown) [I-85] | 5 to 50 nM | < 10 nM
Cn1c(=O)n(C2CCC(=O)NC2=O)c2ccc(N3CC4(CCN(C(=O)[C@H]5CC[C@H](NC(=O)[C@@H]6NC7(CCCCC7)[C@@]7(C(=O)Nc8cc(Cl)ccc87)[C@H]6c6cccc(Cl)c6F)CC5)CC4)C3)cc21 (stereo partly shown) [I-86] | < 5 nM | < 10 nM
O=C(N[C@H]1CC[C@H](CN2CCC(CCCCCC3CCN(C[C@H]4CC[C@H](NC(=O)[C@@H]5NC6(CCCCC6)[C@@]6(C(=O)Nc7cc(Cl)ccc76)[C@H]5c5cccc(Cl)c5F)CC4)CC3)CC2)CC1)[C@@H]1NC2(CCCCC2)[C@@]2(C(=O)Nc3cc(Cl)ccc32)[C@H]1c1cccc(Cl)c1F [I-87] | > 500 nM | > 1000 nM
Cn1c(=O)n(C2CCC(=O)NC2=O)c2ccc(N3CC4(CN(C[C@H]5CC[C@H](NC(=O)[C@@H]6NC7(CCCCC7)[C@@]7(C(=O)Nc8cc(Cl)ccc87)[C@H]6c6cccc(Cl)c6F)CC5)C4)C3)cc21 (stereo partly shown) [I-88] | < 5 nM | < 10 nM
CN(CCc1ccc2c(c1)n(C)c(=O)n2C1CCC(=O)NC1=O)CCN(C)C(=O)[C@H]1CC[C@H](NC(=O)[C@@H]2NC3(CCCCC3)[C@@]3(C(=O)Nc4cc(Cl)ccc43)[C@H]2c2cccc(Cl)c2F)CC1 (stereo partly shown) [I-89] | 5 to 50 nM | < 10 nM

More lines, now with the values ahead:

IC50 (RS411 cells) | DC50 (HiBiT-tagged MDM2) | Structure (SMILES)
5 to 50 nM | < 10 nM | CN1C(C(=O)N[C@H]2CC[C@H](C(=O)N3CCC4(CC3)CN(c3ccc5c(c3)n(C)c(=O)n5C3CCC(=O)NC3=O)C4)CC2)[C@H](c2cccc(Cl)c2F)[C@]2(C(=O)Nc3cc(Cl)ccc32)C12CCCCC2 (stereo partly shown) [I-91]
> 500 nM | 100 to 1000 nM | COc1cc2c(cc1OC(C)C)[C@H](c1ccc(Cl)cc1)N(c1ccc(N(C)C[C@H]3CC[C@H](N(CC(=O)O)C(=O)CCCCc4ccc5c(c4)n(C)c(=O)n5C4CCC(=O)NC4=O)CC3)cc1)C(=O)C2 (stereo partly shown) [I-93]
> 500 nM | > 1000 nM | Cn1c(=O)n(C2CCC(=O)NC2=O)c2ccc(C3CCN(C[C@H]4CC[C@H](NC(=O)[C@@H]5NC6(CCCCC6)[C@@]6(C(=O)Nc7cc(CC8CC8)ccc76)[C@H]5c5cccc(Cl)c5F)CC4)CC3)cc21 (stereo partly shown) [I-94]
> 500 nM | 100 to 1000 nM | CCOc1ccc2c(c1)NC(=O)[C@]21[C@@H](c2cccc(Cl)c2F)[C@H](C(=O)N[C@H]2CC[C@H](CN3CCC(c4ccc5c(c4)n(C)c(=O)n5C4CCC(=O)NC4=O)CC3)CC2)NC12CCCCC2 (stereo partly shown) [I-95]
> 500 nM | < 10 nM | CCOc1ccc2c(c1)NC(=O)C21[C@@H](c2cccc(Cl)c2F)[C@H](C(=O)N[C@H]2CC[C@H](C(=O)C3CCN(CCCc4ccc5c(c4)n(C)c(=O)n5C4CCC(=O)NC4=O)CC3)CC2)NC12CCCCC2 (stereo partly shown) [I-96]
5 to 50 nM | < 10 nM | Cn1c(=O)n(C2CCC(=O)NC2=O)c2ccc(CCN3CCC(NC(=O)[C@@H]4NC5(CCCCC5)[C@@]5(C(=O)Nc6cc(Cl)ccc65)[C@H]4c4cccc(Cl)c4F)CC3)cc21 (stereo partly shown) [I-97]
5 to 50 nM | 100 to 1000 nM | Cn1c(=O)n(C2CCC(=O)NC2=O)c2ccc(CN3CCC(NC(=O)[C@@H]4NC5(CCCCC5)[C@@]5(C(=O)Nc6cc(Cl)ccc65)[C@H]4c4cccc(Cl)c4F)CC3)cc21 (stereo partly shown) [I-98]
5 to 50 nM | 100 to 1000 nM | O=C(O)Cn1c(=O)n(C2CCC(=O)NC2=O)c2ccc(C3CCN(C(=O)[C@H]4CC[C@H](NC(=O)[C@@H]5NC6(CCCCC6)[C@@]6(C(=O)Nc7cc(Cl)ccc76)[C@H]5c5cccc(Cl)c5F)CC4)CC3)cc21 (stereo partly shown) [I-99]
